From patent US20220039395A1, “INSECT CONTROL AGENTS” (priority 2018, published 2022) come the findings set out here.

Data set [1] has as its system Macrosiphum rosae. In words: Desiccation/starvation tolerance assay after peptide microinjection. Format: in vivo. Conditions: for Reduction of LTime50 relative to control / Reduction of median survival relative to control: M. rosae, desiccation/starvation stress; for Documented effect on desiccation/starvation mortality / LTime50 (h), test / Median IQR survival (h), test: Macrosiphum rosae, microinjection; for Documented effect on desiccation/starvation mortality: final concentration ×10^−5 M, relative to vehicle control; for LTime50 (h), test / Median IQR survival (h), test: ×10^−5 M, desiccation and starvation stress, test group. How it is done: (§1) Neuropeptides were administered to test aphids via microinjection to allow for rapid mass screening of neuropeptide analogue efficacy. For this, native neuropeptides were diluted in double distilled water (DDH2O) to a concentration of 1×10^−5 M. Neuropeptide analogues were diluted in DDH2O to the following concentrations: kinin analogues 1728 (2.5×10^−5 M), 2139 (3.5×10^−5 M), 2139-Ac (3.5×10^−5 M); CAP2b analogues 1895 (3.5×10^−5 M), 1896 (3.5×10^−5 M), 1902 (3.5×10^−5 M), 2089 (3.9×10^−5 M), 2123 (1.0×10^−5 M), 2125 (1.0×10^−5 M), 2129 (2.0×10^−5 M). Once at the desired concentration, neuropeptide solutions were administered to test aphids at an injection volume of 9 nl based on total haemolymph volume, to produce an approximate 1:20 dilution of injection volume to haemolymph. Injections were performed using a pulled glass needle and a Nanoject II Auto-Nanoliter Injector (Drummond Scientific Company, Broomall, Pa.). A vehicle control was set up for each treatment/day of experiments to account for variation in needle pulling. For this, control aphids were injected with 9 nl of DDH2O and subsequently exposed to the same experiments as aphids receiving the neuropeptide treatment. Neuropeptide treated and vehicle control aphids were subsequently used in the stress bioassays detailed below.
(§2) Anholocyclic adults of mixed age of either M. persicae or M. rosae were selected from the stock cultures and treated with a native neuropeptide or neuropeptide analogue via microinjection using the method detailed above. Treated and vehicle control aphids were allowed to recover on excised leaves of the host plant for 1 h before being placed in an empty ventilated microcage (L=4 cm, 0=9.5 cm) at densities of 10 per cage. In total, 30-40 aphids were treated for each neuropeptide treatment group and a further 30-40 for the associated vehicle control group. From the point of placement in the microcage (taken as 0 h), aphid survival was checked every hour during daylight hours and approximately every 4 h during night-time hours until the final aphid died. Survival data were subsequently analysed using a Log-rank (Mantel-Cox) text in GraphPad Prism version 7.0. LTime50 (the time taken to kill 50% of the test population) values were calculated via Probit Analysis in Minitab 17 (Minitab Inc., State College, Pa.).

The test system of data set [2] is Myzus persicae. Described as above. It counts as in vivo. The conditions noted are these: for Reduction of LTime50 relative to control / Reduction of median survival relative to control: M. persicae, desiccation/starvation stress; for Documented effect on desiccation/starvation mortality / LTime50 (h), test / Median ± IQR survival (h), test: Myzus persicae, microinjection; for Documented effect on desiccation/starvation mortality: final concentration ×10^−5 M, relative to vehicle control; for LTime50 (h), test / Median ± IQR survival (h), test: ×10^−5 M, desiccation and starvation stress, test group. The method, then:
as §1, §2

For data set [3], the system named is Aphids. In words: Feeding with peptides in artificial diet, mortality without other stress. It counts as in vivo, Myzus persicae. Conditions: ingestion via artificial diet. The method, then:
A standard artificial diet for M. persicae was produced as described in Van Emden (2009) and provided the basal diet to which neuropeptide analogues were added for screening purposes. Neuropeptide analogues were diluted individually in the artificial diet to a pre-determined recommended concentration as follows: 1895 (3.5×10^−5 M) and 2019 (2.0×10^−5 M).
Feeding apparatus were constructed using a set-up developed by Sadeghi et al (2009). For this, a piece of Parafilm was stretched over a Plexiglas ring (h=4 cm, Ø=3 cm) and 100 μl of the artificial diet containing the desired neuropeptide analogue was pipette onto the Parafilm membrane. A second piece of Parafilm, stretched to 4 times the original thickness, was stretched over the original layer, sandwiching the artificial diet between two layers of Parafilm. A strip of Parafilm was wrapped around the circumference of the Plexiglas ring, sealing in the diet. A plastic ring (h=1.2 cm, Ø=3.4 cm) was subsequently placed over the Parafilm layer, creating a walled chamber in which to house test aphids in contact with the Parafilm layer containing the artificial diet. Finally, a small Petri dish (h=1 cm, Ø=3.6 cm), modified for ventilation with net cloth, was placed on top of each feeding apparatus to prevent aphid escape.
To obtain aphids for use in experiments, reproducing anholocyclic adults were placed on individual excised leaves of Chinese cabbage at densities of 5 adults per leaf and allowed to reproduce for 24 h. The stem of each excised leaf was held within a 0.5 mL Eppendorf tube containing water via a punctured hole in the Eppendorf lid, and placed individually within a microcage (L=4 cm, Ø=9.5 cm). Following 24 h, adults were removed and resultant first instar nymphs (<1 day old and synchronised in age to within 24 h) retained. Nymphs were allowed to develop on the Chinese cabbage for 5 days. On day 5, (3rd instar) nymphs were transferred onto the artificial diet containing a neuropeptide analogue at densities of 1 per feeding chamber and monitored daily until death. Aphids were transferred to fresh artificial diet (containing neuropeptide analogue) every 5 days. Life history traits recorded include age at first reproduction, number of nymphs produced per 24 h period, and lifespan. From these parameters, lifetime fecundity and daily fecundity were calculated. Control groups were set up involving aphids reared on the host plant, an artificial diet without a neuropeptide analogue, and an artificial diet containing the native CAPA neuropeptide.
Aphids were reared on artificial diet, alone or supplemented with peptide 2129, 2315, 2316 or 2320. A control group (no test peptide) was reared on a host plant. No other stress conditions were applied.
For peptides 2315, 2316 and 2320, mortality was assessed at 48, 72, 96, 120 and 144 hours. A group of 9 or 10 insects was used for each time point, and all experiments were performed at least 4 times.

“Also recorded” adds a separate entry of the source. Numbered stars: 1 amine (or outer) side, 2 acyl side, 3 side chain; on linkers, the order of the positions; unused ones are H or OH. Peptide text beside a SMILES is read from it. * marks the point of attachment. X1 = Brc1ccc2c(c1)-c1cc(N*)ccc1C2; Suc = O=C(CCC(=O)[*:2])[*:1]

Take 2Abf-Suc-FGPRL-NH2 [compound 1895]: in data set [1], the “Reduction of LTime50 relative to control” value came to 9.6 h; the “Reduction of median survival relative to control” value came out at 10.5 h; the “Documented effect on desiccation/starvation mortality” value is recorded as “significantly increase mortality relative to the control; also recorded: significantly increased desiccation/starvation mortality; also recorded: Increases”; the “LTime50 (h), test” value was 18.7 | 9.1 h. In data set [1], the “Median IQR survival (h), test” value is given as 17.5 ± 19.5 | 7.0 ± 12.5 h. Besides, in data set [2], the “Reduction of LTime50 relative to control” value amounted to 3.5 h; the “Reduction of median survival relative to control” value is given as 4.0 h; the “Documented effect on desiccation/starvation mortality” value is reported as “significantly increase mortality relative to the control; also recorded: significantly increased desiccation/starvation mortality; also recorded: Increases”; the “LTime50 (h), test” value was 15.9 | 12.4 h. The “Median ± IQR survival (h), test” value in data set [2] is on record as 17.8 ± 12.0 | 13.8 ± 11.8 h.

For `CC[C@H](C)[C@H](NC(=O)[C@H](CCCNC(=N)N)NC(=O)[C@@H]1CCCN1C(=O)[C@@H](NC(=O)[C@H](C)NC(=O)CCC(=O)Nc1ccc2c(c1)-c1cc(Br)ccc1C2)[C@@H](C)O)C(N)=O` [compound 2129, 2Abf-Suc-ATPRI-NH2] ({X1-Suc}-ATPRI-NH2), in data set [3] (after 24 h), the “change in mortality relative to the control” value is recorded as 19.7% and the percentage survival was 73.8%. The “effect on aphid longevity” value in data set [3] (after the first 24 h) is on record as “highly significant reduction in aphid longevity”. In data set [1], the “Reduction of LTime50 relative to control” value is 11.6 h; the “Reduction of median survival relative to control” value was 12.8 h; the “Documented effect on desiccation/starvation mortality” value is given as “significantly increase mortality relative to the control; also recorded: significantly increased desiccation/starvation mortality; also recorded: Increases”; the “LTime50 (h), test” value is 24.3 | 12.7 h. In addition, the “Median IQR survival (h), test” value in data set [1] was 23.8 ± 20.5 | 11.0 ± 13.0 h. In data set [2], the “Reduction of LTime50 relative to control” value turned out to be 7.1 h; the “Reduction of median survival relative to control” value came out at 9.8 h; the “Documented effect on desiccation/starvation mortality” value is listed as “significantly increase mortality relative to the control; also recorded: significantly increased desiccation/starvation mortality; also recorded: Increases”; the “LTime50 (h), test” value was 15.9 | 8.8 h. The “Median ± IQR survival (h), test” value in data set [2] was 17.8 ± 12.0 | 8.0 ± 17.0 h.
